Assay results as given in ChEMBL document CHEMBL1201862, “PubChem BioAssay data set” (2004).
The source made the active and inactive calls.

Columns and labels:
SUMO-activating enzyme [1] = molecular target: T1, SUMO-activating enzyme (Homo sapiens, UniProt Q9UBT2); assay: SUMOylation inhibitor hit validation, confirmation, SUMOylation inhibitor project, biochemical, AlphaScreen (AID 2018); type: functional
[2] = molecular target: T2, RNA-binding protein pos-1 (Caenorhabditis elegans, UniProt G5EF15); assay: inhibitors of POS-1/mex-3 RNA binding, dose response, biochemical, fluorescence polarization (AID 1964);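 further: purified POS-1 fused to maltose binding protein made in E. coli; potency of compounds blocking POS-1 binding to fluorescent RNA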
T2 sequence (G5EF15 whole entry): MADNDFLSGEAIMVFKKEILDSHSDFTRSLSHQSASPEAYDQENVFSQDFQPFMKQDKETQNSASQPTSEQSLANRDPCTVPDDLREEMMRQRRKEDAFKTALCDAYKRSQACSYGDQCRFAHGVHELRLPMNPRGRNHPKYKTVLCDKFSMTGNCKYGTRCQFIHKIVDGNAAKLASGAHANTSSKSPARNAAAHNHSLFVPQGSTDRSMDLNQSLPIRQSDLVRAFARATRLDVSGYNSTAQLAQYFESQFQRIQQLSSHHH

[3] = molecular target: T3, Zinc finger protein mex-5 (Caenorhabditis elegans, UniProt Q9XUB2); assay: MEX-5/TCR-2 RNA interaction inhibitors, dose response, biochemical, C. elegans, fluorescence polarization (AID 1960)
T3 sequence (Q9XUB2 whole entry): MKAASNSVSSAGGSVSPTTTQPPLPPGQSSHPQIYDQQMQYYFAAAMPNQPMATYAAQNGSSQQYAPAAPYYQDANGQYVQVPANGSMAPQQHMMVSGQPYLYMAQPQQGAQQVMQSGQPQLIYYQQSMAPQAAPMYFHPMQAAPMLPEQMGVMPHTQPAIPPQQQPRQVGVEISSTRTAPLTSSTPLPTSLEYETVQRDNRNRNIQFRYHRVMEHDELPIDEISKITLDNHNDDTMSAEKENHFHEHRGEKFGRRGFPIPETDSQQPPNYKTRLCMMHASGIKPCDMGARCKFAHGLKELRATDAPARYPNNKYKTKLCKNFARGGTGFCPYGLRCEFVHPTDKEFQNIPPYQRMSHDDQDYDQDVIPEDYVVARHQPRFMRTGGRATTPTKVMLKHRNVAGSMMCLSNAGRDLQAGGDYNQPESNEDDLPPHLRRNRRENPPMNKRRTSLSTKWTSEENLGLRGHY

[4] = molecular target: T4, Heat shock factor protein 1 (Mus musculus, UniProt P38532); assay: inhibition of MG132-induced HSE-luciferase signal, confirmation, cell-based, NIH3T3, luminescence, dose retest (AID 2382); type: functional;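 further: NIH3T3 fibroblasts with HSF1-driven luciferase reporter stressed by proteasome inhibitor MG132; luminescence from HSF1-driven luciferase expression after 8 hours of MG132 stress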
T4 sequence (P38532 whole entry): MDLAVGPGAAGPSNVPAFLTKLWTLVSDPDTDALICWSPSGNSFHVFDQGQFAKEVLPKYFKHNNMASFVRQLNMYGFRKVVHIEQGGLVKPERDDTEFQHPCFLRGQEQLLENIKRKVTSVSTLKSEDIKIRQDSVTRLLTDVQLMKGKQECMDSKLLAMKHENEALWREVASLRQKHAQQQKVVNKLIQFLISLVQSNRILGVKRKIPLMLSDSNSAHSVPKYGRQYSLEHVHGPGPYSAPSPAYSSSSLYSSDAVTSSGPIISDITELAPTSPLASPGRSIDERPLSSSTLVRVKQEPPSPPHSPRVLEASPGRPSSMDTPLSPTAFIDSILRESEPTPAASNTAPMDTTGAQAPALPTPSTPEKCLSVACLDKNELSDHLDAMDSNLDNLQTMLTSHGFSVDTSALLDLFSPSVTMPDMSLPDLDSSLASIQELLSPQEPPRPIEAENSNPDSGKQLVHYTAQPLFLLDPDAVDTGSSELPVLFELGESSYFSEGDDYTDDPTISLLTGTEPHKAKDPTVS

Nonstructural protein 1 = Nonstructural protein 1 (Influenza A virus, UniProt Q194T2); type: functional, Influenza A virus (A/California/07/2009(H1N1))
Nonstructural protein 1, sequence (Q194T2 whole entry): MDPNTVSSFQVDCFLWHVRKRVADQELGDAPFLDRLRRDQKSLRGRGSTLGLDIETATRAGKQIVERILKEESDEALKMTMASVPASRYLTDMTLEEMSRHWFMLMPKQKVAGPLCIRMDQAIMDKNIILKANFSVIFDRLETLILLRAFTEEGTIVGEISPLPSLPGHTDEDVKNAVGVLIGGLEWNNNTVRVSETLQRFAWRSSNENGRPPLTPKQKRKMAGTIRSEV

Aminopeptidase N = molecular target: T5, Aminopeptidase N (Plasmodium falciparum FcB1/Columbia, UniProt O96935); assay: P. falciparum M1AAP inhibitors, biochemical, fluorogenic H-Leu-NHMec substrate, 1536-well (AID 1445); parameters: species or system Plasmodium falciparum 3D7, 3D7
T5 sequence (O96935 whole entry): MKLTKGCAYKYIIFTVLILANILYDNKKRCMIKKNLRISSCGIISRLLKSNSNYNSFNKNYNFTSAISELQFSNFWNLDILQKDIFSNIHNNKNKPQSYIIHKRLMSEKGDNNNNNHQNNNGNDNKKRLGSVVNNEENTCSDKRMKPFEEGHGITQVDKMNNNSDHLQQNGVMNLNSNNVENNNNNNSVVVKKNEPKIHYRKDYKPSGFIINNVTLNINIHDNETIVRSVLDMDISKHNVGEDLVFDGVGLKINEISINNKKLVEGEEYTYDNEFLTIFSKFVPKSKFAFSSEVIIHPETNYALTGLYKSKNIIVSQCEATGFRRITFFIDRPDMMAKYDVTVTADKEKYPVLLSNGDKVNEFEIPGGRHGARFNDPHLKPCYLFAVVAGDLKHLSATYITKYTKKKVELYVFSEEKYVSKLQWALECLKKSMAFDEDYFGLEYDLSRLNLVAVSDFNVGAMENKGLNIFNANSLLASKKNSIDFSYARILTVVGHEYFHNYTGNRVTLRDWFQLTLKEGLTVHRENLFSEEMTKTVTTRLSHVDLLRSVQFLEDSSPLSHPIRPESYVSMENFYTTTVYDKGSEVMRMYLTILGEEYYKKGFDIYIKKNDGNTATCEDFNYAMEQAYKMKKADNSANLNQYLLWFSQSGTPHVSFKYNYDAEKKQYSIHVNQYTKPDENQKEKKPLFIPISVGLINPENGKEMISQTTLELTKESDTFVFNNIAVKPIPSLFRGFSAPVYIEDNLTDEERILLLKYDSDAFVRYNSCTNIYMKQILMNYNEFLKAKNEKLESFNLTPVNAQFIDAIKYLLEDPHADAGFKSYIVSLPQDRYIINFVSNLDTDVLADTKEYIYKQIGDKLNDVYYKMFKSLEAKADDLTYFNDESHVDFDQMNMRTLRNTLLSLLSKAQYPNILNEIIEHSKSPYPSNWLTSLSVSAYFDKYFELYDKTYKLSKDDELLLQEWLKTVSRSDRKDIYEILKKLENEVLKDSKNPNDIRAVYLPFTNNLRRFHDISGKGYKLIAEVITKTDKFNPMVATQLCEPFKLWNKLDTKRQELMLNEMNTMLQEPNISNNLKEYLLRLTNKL

SUMO-activating enzyme [5] = molecular target: T1, SUMO-activating enzyme; assay: inhibitors of in vitro SUMOylation cascade, primary screen, biochemical, HTRF, uHTS (AID 2006); type: protein-complex assay
Beta-galactosidase = Beta-galactosidase (Escherichia coli, UniProt Q8VNN2); assay: beta-galactosidase enzyme inhibitors and activators, dose response, artefact control for CCR6 antagonist project, biochemical, E. coli enzyme, set 3 (AID 504712); type: functional
Beta-galactosidase, sequence (Q8VNN2 whole entry): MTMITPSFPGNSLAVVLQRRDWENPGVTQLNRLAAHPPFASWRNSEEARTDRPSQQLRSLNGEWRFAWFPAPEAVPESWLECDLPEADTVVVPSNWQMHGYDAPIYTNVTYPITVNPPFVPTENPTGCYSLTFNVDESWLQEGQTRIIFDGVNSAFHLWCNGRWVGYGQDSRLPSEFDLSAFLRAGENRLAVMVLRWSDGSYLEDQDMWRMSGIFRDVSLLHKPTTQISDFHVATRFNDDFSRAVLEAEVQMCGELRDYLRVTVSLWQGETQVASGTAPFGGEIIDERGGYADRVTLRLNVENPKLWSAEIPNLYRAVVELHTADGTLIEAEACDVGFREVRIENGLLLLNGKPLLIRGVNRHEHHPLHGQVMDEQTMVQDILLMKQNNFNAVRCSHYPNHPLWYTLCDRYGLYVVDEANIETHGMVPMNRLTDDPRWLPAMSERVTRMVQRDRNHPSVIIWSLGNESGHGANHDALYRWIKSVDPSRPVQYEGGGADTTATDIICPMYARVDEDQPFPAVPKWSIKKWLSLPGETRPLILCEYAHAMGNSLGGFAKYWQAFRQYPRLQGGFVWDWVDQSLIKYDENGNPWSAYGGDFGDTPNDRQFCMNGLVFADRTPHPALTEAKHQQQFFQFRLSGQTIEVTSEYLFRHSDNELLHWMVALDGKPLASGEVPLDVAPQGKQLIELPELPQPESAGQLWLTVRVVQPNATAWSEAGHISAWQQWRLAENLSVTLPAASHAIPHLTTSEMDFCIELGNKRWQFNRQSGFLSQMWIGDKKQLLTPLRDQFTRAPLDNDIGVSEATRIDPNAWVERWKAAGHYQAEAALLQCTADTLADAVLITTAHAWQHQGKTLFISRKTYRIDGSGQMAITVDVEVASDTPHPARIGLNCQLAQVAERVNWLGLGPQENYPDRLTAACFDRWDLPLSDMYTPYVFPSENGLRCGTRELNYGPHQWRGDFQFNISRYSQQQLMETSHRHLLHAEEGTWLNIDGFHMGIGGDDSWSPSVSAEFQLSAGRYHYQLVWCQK

[6] = inhibitors of intracellular T. cruzi replication, confirmation, NIH3T3 host cells, beta-gal luminescence (AID 2044); type: functional, cell-based;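 further: intracellular parasites grown in NIH/3T3 mouse fibroblasts as host cells; luminescent beta-galactosidase reporter signal from transgenic T. cruzi replicating inside host cells; inhibitors lower the luminescence signal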
[7] = tested on: Streptococcus sp. 'group A'; assay: growth inhibition of control SK(-) GAS strain, dose response, counter-screen for streptokinase expression inhibitor project, luminescence, kanamycin, BacTiterGlo, confirmation (AID 1900); type: functional, organism-based
Streptococcus = assay: Group A Streptococcus viability loss, dose response, counter-screen for streptokinase expression inhibitor project, luminescence, BacTiterGlo (AID 1915); type: functional, organism-based;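 further: potency for reduction of bacterial viability or growth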
Vero = assay: cells; type: functional; conditions: Chlorocebus sabaeus
[8] = molecular target: C-C chemokine receptor type 6 (Homo sapiens, UniProt P51684); assay: CCR6 receptor antagonists, dose response, cell-based, luminescent beta-arrestin readout (AID 504728); type: functional
C-C chemokine receptor type 6, sequence (P51684 whole entry): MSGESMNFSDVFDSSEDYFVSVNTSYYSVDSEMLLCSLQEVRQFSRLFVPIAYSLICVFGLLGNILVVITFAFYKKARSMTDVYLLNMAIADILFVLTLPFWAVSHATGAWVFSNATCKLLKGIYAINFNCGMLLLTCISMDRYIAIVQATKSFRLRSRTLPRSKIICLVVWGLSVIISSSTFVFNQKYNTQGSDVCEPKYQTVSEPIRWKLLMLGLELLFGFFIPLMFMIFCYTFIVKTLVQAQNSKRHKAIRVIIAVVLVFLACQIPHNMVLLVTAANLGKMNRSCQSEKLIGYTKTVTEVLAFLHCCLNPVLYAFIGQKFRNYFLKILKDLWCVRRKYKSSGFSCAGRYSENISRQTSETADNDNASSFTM

[9] = Luminescence Cell-Based Dose Response HTS to Identify Inhibitors of 5'UTR Stem-Loop Driven Prion Protein mRNA Translation in H4 Neuroglioblastoma Cells. [Related pubchem assays: 1827 (Project Summary), 1813 (Primary HTS)]; type: functional
[10] = inhibitors of firefly luciferase expression or activity, dose response, H4 neuroglioma cells, luminescence (AID 1990); type: functional, cell-based
[11] = HepG2 cell cytotoxicity, dose response, cytotoxicity control for non-replicating M. tuberculosis project (AID 489018); type: functional; conditions: Mycobacterium tuberculosis
cells [12] = type: functional, cell-based
[13] = THP-1 cell cytotoxicity, dose response, cytotoxicity control for non-replicating M. tuberculosis project (AID 489025); type: functional
[14] = Vero E6 cell cytotoxicity, dose response, cytotoxicity control for non-replicating M. tuberculosis project, secondary assay (AID 492998); type: functional, VeroE6; conditions: Vero C1008
[15] = HepG2 cell cytotoxicity, dose response, cytotoxicity control for Shn3 inhibitor project, CellTiter-Glo, cherry-picked (AID 624134); type: functional, cell-based
[16] = Shn3 3'UTR reporter inhibitors, dose response, cell-based, Clone20 osteoblasts, firefly luciferase, cherry-picked (AID 624132); type: functional;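 further: firefly luciferase luminescence from reporter carrying the Shn3 3'UTR in osteoblasts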
[17] = cytotoxicity toward NIH3T3 fibroblasts, dose response, counter-screen, cell-based, ATP luminescence, mouse fibroblasts (AID 2010); type: functional;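 further: cells exposed to compound for about 90 hours before reading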
[18] = control 3'UTR Renilla luciferase suppression, dose response, counter-screen for Shn3 inhibitor project, cell-based, Clone20-Shn3RL, cherry-picked (AID 624133); type: functional
cells [19] = type: functional
cells [20] = type: functional, cell-based; remark: listed apart in the source
H9c2 = assay: cells; type: functional, cell-based; conditions: Rattus norvegicus, H9c2, Myocardium;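 further: confirmatory concentration-response retest of ultra-high-throughput screening hits for modulation of myocardial damage; cell death induced by hydrogen peroxide oxidative stress; compound pretreatment for 60 min then peroxide exposure for 2 h; potency is for protecting the cells against peroxide damage rather than for killing them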
[21] = inhibitors of SNCA 5'UTR-driven reporter translation, confirmation, H4 neuroglioma cells, luminescence (AID 1988); type: functional, cell-based
[22] = molecular target: Voltage-dependent T-type calcium channel subunit alpha-1H (Homo sapiens, UniProt O95180); assay: Cav3.2 T-type channel inhibitors, cell-based, synthetic library set 1, calcium flux (AID 493022); type: functional
Voltage-dependent T-type calcium channel subunit alpha-1H, sequence (O95180 whole entry): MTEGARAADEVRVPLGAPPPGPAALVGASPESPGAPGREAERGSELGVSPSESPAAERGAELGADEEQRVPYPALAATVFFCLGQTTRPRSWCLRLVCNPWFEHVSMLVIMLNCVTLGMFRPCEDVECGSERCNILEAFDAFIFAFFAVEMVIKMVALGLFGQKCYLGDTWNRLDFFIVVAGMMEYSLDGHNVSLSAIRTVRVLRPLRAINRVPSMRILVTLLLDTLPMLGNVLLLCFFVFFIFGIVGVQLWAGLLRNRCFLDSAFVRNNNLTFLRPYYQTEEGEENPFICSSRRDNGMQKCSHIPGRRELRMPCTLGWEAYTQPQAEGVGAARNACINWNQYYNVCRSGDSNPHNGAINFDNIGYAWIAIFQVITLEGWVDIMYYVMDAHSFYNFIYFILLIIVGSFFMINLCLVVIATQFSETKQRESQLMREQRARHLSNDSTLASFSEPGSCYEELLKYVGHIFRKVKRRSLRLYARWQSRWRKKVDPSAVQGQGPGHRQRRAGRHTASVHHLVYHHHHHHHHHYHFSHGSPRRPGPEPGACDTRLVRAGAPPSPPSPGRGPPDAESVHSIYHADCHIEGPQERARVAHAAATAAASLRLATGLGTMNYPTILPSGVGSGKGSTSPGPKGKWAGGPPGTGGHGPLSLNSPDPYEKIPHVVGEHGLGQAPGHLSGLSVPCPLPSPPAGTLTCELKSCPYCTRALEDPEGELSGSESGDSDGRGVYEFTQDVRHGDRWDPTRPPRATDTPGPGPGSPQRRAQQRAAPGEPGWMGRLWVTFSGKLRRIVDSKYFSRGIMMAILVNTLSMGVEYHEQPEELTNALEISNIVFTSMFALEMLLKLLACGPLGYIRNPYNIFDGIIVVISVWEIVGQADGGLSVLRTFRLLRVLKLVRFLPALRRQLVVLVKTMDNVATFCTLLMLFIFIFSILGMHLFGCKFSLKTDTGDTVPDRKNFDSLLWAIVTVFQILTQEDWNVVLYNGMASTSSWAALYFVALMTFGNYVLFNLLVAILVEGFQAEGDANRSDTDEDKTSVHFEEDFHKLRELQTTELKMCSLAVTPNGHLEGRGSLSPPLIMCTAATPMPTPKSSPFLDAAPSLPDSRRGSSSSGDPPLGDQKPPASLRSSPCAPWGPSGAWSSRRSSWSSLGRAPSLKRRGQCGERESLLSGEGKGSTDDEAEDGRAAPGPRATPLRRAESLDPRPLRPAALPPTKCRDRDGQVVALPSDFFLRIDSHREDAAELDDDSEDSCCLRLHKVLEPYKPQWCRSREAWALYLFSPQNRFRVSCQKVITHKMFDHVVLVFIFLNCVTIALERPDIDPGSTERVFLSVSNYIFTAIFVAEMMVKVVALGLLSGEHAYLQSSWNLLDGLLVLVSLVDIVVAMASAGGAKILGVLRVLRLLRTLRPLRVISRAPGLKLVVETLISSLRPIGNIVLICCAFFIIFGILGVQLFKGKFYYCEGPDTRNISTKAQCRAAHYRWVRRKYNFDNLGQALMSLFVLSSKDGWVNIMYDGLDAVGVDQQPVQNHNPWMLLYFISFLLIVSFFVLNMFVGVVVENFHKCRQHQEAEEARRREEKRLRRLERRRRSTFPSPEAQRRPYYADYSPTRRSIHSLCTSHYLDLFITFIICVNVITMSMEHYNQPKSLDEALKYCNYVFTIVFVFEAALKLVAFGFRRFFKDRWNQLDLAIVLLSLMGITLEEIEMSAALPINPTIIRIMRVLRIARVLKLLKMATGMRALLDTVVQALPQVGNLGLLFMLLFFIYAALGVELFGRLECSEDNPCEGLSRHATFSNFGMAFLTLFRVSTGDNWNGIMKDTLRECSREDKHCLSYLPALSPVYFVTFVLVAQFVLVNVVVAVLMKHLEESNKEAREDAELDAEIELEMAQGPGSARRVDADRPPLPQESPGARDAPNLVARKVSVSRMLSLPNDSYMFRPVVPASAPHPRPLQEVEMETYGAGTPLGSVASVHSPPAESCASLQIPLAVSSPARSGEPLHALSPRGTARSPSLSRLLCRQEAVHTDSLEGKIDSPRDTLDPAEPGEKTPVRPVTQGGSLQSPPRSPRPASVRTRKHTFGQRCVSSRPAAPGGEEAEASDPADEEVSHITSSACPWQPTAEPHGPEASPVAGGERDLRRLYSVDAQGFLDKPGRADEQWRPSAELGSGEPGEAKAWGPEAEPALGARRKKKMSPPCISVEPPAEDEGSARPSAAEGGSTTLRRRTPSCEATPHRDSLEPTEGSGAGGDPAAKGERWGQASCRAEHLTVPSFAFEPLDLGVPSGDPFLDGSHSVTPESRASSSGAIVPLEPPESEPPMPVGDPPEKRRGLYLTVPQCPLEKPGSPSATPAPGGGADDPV

[23] = inhibition of K1F phage lysis, E. coli UTI89, bacterial capsule biogenesis inhibitors, alamar blue (AID 488966); type: functional

T1 sequence (Q9UBE0 whole entry, the tested form may be a part): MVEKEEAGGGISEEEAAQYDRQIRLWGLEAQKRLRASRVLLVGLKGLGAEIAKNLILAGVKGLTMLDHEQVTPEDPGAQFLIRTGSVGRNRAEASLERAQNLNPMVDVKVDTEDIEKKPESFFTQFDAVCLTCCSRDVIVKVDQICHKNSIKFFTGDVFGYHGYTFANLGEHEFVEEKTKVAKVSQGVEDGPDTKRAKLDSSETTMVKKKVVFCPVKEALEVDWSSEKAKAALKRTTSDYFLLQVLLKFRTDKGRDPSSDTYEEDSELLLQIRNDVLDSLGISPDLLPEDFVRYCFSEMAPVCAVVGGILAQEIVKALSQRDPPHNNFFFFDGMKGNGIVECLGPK
T1 sequence (Q9UBT2 whole entry, the tested form may be a part): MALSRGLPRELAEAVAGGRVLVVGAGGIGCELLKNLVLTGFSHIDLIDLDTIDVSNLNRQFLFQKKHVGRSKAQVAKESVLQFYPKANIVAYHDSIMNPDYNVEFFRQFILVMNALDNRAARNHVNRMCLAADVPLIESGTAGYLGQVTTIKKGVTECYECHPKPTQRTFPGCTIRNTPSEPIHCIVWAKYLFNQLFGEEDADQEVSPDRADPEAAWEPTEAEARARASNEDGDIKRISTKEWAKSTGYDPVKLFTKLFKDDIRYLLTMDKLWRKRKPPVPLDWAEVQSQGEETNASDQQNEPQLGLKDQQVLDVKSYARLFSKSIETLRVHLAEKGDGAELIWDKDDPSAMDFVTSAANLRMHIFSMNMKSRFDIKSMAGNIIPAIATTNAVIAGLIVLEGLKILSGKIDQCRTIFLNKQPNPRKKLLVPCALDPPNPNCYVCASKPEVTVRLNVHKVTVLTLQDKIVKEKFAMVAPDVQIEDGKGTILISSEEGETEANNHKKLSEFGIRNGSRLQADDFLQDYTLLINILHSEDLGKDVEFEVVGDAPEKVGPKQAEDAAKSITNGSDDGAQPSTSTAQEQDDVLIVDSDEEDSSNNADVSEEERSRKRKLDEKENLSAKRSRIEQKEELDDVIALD

Cc1ccccc1N1C(=O)/C(=C/NNC(=O)c2ccccc2O)C(=O)NC1=S
active: IC50 (SUMO-activating enzyme [1]) 25.7 µM | EC50 [2] 21.2 µM | EC50 [3] 23.5 µM | EC50 [4] 30.8 µM | IC50 (Nonstructural protein 1) 13.4 µM | IC50 (Aminopeptidase N) 11.5 µM | IC50 (SUMO-activating enzyme [5]) 42.4 µM

CCc1ccccc1OCC(=O)Nc1nc(-c2cccnc2)cs1
inactive: IC50 (Beta-galactosidase) > 66.6 µM | IC50 [8] > 66.6 µM
active: EC50 [6] 1.14 µM | EC50 [7] 0.428 µM | EC50 (Streptococcus) 3.28 µM | CC50 (Vero) > 25 µM

Cc1cc(C)n(-c2ccc3cccc(NS(C)(=O)=O)c3n2)n1
> 350 µM (not active): EC50 (cells [12]) | EC50 (cells [20])
inactive: IC50 (H9c2) > 79 µM
active: EC50 [9] 7.99 µM | EC50 [10] 0.137 µM | CC50 [11] 19.3 µM | CC50 [13] 12.5 µM | EC50 [6] 1.07 µM | CC50 [14] 3.8 µM | AC50 [15] 6.2 µM | AC50 [16] 1.32 µM | EC50 [17] 0.68 µM | AC50 [18] 0.759 µM | IC50 (cells [19]) > 25 µM | EC50 [21] 0.159 µM

O=C(COc1ccc(F)cc1Cl)Nc1nnc(-c2ccc3c(c2)OCCO3)o1
active: EC50 [22] 2.6 µM

Clc1ccc2c(NCCNC3CCCCC3)ccnc2c1
active: IC50 [23] > 150 µM
